The record followed here is patent publication US4482559A, “4-Phenyl-4,5,6,7-tetrahydro-thieno [2,3-c]pyridines, compositions and use” (Boehringer Ingelheim KG, priority 1982, dated 1984).

Data set [1] concerns hypothermic effect caused by reserpine. Kind of data set: reserpine antagonism (reversal of the hypothermic effect caused by reserpine) in mice. It counts as in vivo. To be noted: Mus musculus, oral, reserpine 2 mg/kg i.p. 17 hours before. The procedure: The test used for determining antidepressant properties was reserpine antagonism, namely the reversal of the hypothermic effect caused by reserpine. This test was carried out on mice, using five animals per dose. 17 hours after the intraperitoneal administration of 2 mg/kg of reserpine, the peripheral body temperature was measured at an ambient temperature of 19° C. Then, the test compound was administered by the oral route, and the body temperature was measured after 1, 3, 5 and 7 hours had elapsed. A median effective dose (ED50) was determined for each period of measurement. This is the dose at which the body temperature of the animals treated with reserpine is brought closer to the normal temperature of the untreated control animals by 50%.

Data set [2] in a line: LD50 in the mouse by oral route. The conditions noted are these: in vivo.
Setting [3] is: 1 hour, read-out: Reserpine antagonism, median effective dose (ED50) after 1 hr.
The mark [4] stands for this setting: 3 hours, read-out: Reserpine antagonism, median effective dose (ED50) after 3 hrs.
Setting [5] is: 5 hours, read-out: Reserpine antagonism, median effective dose (ED50) after 5 hrs.
Setting [6] is: 7 hours, read-out: Reserpine antagonism, median effective dose (ED50) after 7 hrs.

Read-outs that look alike come from different tables or passages of the source.

What is called ED50 is the dose that gives a 50% effect, or the effect in half of the subjects. Usually LD50 stands for the dose expected to kill half of the subjects tested.

As for `Cc1ccc(C2CN(C)Cc3sc(CO)cc32)cc1` (stereo not drawn) [2-(Hydroxy-methyl)-6-methyl-4-p-tolyl-4,5,6,7-tetrahydrothieno[2,3-c]pyridine], the ED50 was 2.5 mg/kg in data set [1] (setting [3]), 0.24 mg/kg in data set [1] (setting [4]), 2.5 mg/kg in data set [1] (setting [5]) and above 10 mg/kg in data set [1] (setting [6]). The LD50 in data set [2] was around 740 mg/kg.

Regarding `CN1Cc2sc(CN3CCOCC3)cc2C(c2ccc(Br)cc2)C1` (stereo not drawn) [2-(Morpholino-methyl)-4-(p-bromo-phenyl)-6-methyl-4,5,6,7-tetrahydro-thieno[2,3-c]pyridine], the ED50 came out at 22 mg/kg in data set [1] (setting [3]), 1.7 mg/kg in data set [1] (setting [4]), 1.7 mg/kg in data set [1] (setting [5]) and 10 mg/kg in data set [1] (setting [6]). The LD50 in data set [2] is above 640 mg/kg.

As for `CN1Cc2sc(CN3CCOCC3)cc2C(c2ccc(Cl)cc2)C1` (stereo not drawn) [2-(Morpholino-methyl)-4-(p-chloro-phenyl)-6-methyl-4,5,6,7-tetrahydro-thieno[2,3-c]pyridine], the ED50 was above 40 mg/kg in data set [1] (setting [3]), 2.6 mg/kg in data set [1] (setting [4]), 12 mg/kg in data set [1] (setting [5]) and 2.5 mg/kg in data set [1] (setting [6]). The same compound registered an LD50 in data set [2] above 640 mg/kg.
